Test results: patent US7786152B2, “Compound” (priority 2002, dated 2010)

Biological target: T1, Human 11βHSD1 (Homo sapiens, UniProt P28845)
T1 construct: the enzyme source, native hepatic enzyme compared to recombinant enzyme; tissue XenoTech H0610/Lot 0210078; host or cells: human hepatic microsomes
Assay: 11β HSD1 cortisol radioimmunoassay (RIA) with human hepatic microsomes
Type: biochemical
Settings: read-out: % inhibition of Human 11βHSD1 @ 10 μM
Description: Biological Assay Development Using Human 11β-Hydroxysteroid Dehydrogenase Type 1. Standard Operating Procedure for the 11β-Hydroxysteroid Dehydrogenase Type 1 Cortisol Radioimmunoassay. 11β HSD1 Cortisol RIA
Enzyme assay buffer: 30 mM Tris-HCL, pH 7.2 containing 1 mM EDTA
Antibody binding buffer: 50 mM Tris-HCL, pH 8, containing 0.1 M NaCl and 0.1% gelatin
Dilute into assay buffer 1 in 25. Also dilute neat DMSO 1 in 25 into assay buffer for controls.
Dilute this 1 in 50 into assay buffer.
Prepare NADPH as a 1.8 mg/ml solution in assay buffer.
Mix these 3 solutions 1:1:1 to make a solution of sufficient volume for 25 μl additions to each sample. Add 0.5 μCi tritiated cortisone per 25 μl and mix the solution well.
Microsome preparation: Dilute stock 20 mg/ml solution 1 in 100 with assay buffer.
Dextran coated charcoal preparation: Make a 20 mg/ml solution in antibody binding buffer and chill on ice.
Enzyme assay: To a u-bottom polypropylene 96 well plate add:
25 μl compound dilution or diluted DMSO to controls, NSB's and blanks
10 μl 1 mM GA in DMSO (enzyme stop solution) to blanks
25 μl substrate mixture to all samples
50 μl diluted microsomes to all samples
Incubate plate for 30 min at 37° C. shaking
Add 10 μl enzyme stop solution to all wells except the blanks
Add 100 μl antibody solution to all wells except the NSB's, add antibody binding buffer to these wells
Incubate at 37° C. for 1 h
Chill plate on ice for 15 min
Add 50 μl/well charcoal solution and mix with an 8-channel pipette (4-5 aspirations)
Centrifuge at 4° C., 2000×g for 15 min
Transfer 100 μl supernatant into an Optiplate, also add 25 μl substrate mixture to 2 empty wells to indicate counting efficiency
Add 200 μl Microscint-40 to all wells and count on a Topcount
The 11β HSD1 enzyme assay was carried out following the standard operating procedure described above in u-bottom polypropylene 96 well plates or 1.5 ml Eppendorf tubes as indicated for each experiment. Subsequent to stopping the enzyme reaction, 100 μl antibody prepared in buffer 3 unless otherwise indicated was added to test samples and 100 μl buffer 3 was added to the NSB samples. The samples were incubated for 1 hour at 37° C. and the chilled on ice for 15 mins. Dextran coated charcoal (50 μl/sample) prepared to the indicated concentration in buffer 3 was added and the samples were mixed (vortex for tubes and aspiration 5 times with an 8-channel pipette for 96 well plates) and chilled for a further 10 min. The samples were centrifuged at 2000×g for 15 min at 4° C. to pellet the charcoal. Aliquots of the supernatant (100 μl) were transferred to an Optiplate and counted on the Topcount in 150-200 μl Microscint 40. In some experiments, aliquots of supernatant were transferred to scintillation vials and counted on the Tricarb LSC in 5 ml Ultima Gold scintillant.
Substrate saturation was examined. The enzyme assay was carried out exactly described in the methods section, in Buffer 3 with 10 μg/well microsomal protein and with [cold cortisone] as indicated. [3H]-cortisone was 0.5 μCi/sample throughout. The reaction was stopped after 30 min by the addition of 10 μl stop solution. The RIA was carried out exactly as indicated in the methods section.
It is reported that DMSO can both increase and reduce microsomal enzyme activity, depending on the concentration, presumably due to effects on the microsomal membranes.

T1 sequence (P28845 whole entry): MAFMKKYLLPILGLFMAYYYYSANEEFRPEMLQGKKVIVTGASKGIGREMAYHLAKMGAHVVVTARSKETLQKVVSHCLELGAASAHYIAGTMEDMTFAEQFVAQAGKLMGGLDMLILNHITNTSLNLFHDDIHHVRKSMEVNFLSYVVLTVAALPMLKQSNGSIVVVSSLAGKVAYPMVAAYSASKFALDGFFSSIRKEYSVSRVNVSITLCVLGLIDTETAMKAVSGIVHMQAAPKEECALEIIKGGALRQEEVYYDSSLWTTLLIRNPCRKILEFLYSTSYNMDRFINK

| Compound | inhibition at 10 µM [%] |
| --- | --- |
| CCSc1nc2ccc(NS(=O)(=O)c3cccc(Cl)c3C)cc2s1 [compound 751] | 22 |
| Cc1nc2cc(NS(=O)(=O)c3ccc(Br)cc3C)ccc2s1 [compound 523] | 61 |
| Cc1nc2cc(NS(=O)(=O)c3cccc4cccnc34)ccc2s1 [compound 552] | 45 |
| Cc1nc2cc(NS(=O)(=O)c3ccc(Cl)cc3Cl)ccc2s1 [compound 412] | 36 |
| Cc1nc2cc(NS(=O)(=O)c3cccc(Cl)c3C)ccc2s1 [compound 413] | 29 |
| Cc1nc2cc(NS(=O)(=O)c3ccc(C(C)C)cc3)ccc2s1 [compound 704] | 44 |
| COc1cc(C)ccc1S(=O)(=O)Nc1ccc2sc(C)nc2c1 [compound 584] | 20 |
| Cc1nc2cc(NS(=O)(=O)c3c(C)c(C)c(C)c(C)c3C)ccc2s1 [compound 710] | 35 |
| Cc1nc2cc(NS(=O)(=O)c3c(Cl)cc(Cl)cc3Cl)ccc2s1 [compound 522] | 47 |
| COc1ccc(S(=O)(=O)Nc2ccc3sc(C)nc3c2)cc1 [compound 424] | 47 |
| Cc1nc2cc(NS(=O)(=O)c3c(C)cccc3Cl)ccc2s1 [compound 425] | 41 |
| Cc1nc2cc(N(C)S(=O)(=O)c3cccc(Cl)c3C)ccc2s1 [compound 469] | 66 |
| CC(=O)c1ccccc1S(=O)(=O)Nc1ccc2sc(C)nc2c1 [compound 701] | 41 |
| Cc1nc2cc(NS(=O)(=O)c3c(C(C)C)cc(C(C)C)cc3C(C)C)ccc2s1 [compound 703] | 37 |
| Cc1nc2cc(NS(=O)(=O)c3cc(Cl)ccc3Cl)ccc2s1 [compound 580] | 30 |
| CCCc1ccc(S(=O)(=O)Nc2ccc3sc(C)nc3c2)cc1 [compound 421] | 42 |
| Cc1nc2cc(NS(=O)(=O)c3ccc4c(c3)CN(C(=O)C(F)(F)F)CC4)ccc2s1 [compound 581] | 29 |
| Cc1nc2cc(NS(=O)(=O)c3cccc4ccccc34)ccc2s1 [compound 553] | 48 |
| Cc1nc2cc(NS(=O)(=O)c3ccc(C(C)(C)C)cc3)ccc2s1 [compound 709] | 49 |
| Cc1nc2cc(NS(=O)(=O)c3ccc(-c4ccccc4)cc3)ccc2s1 [compound 521] | 60 |
| Cc1nc2cc(NS(=O)(=O)c3cccc4c(N(C)C)cccc34)ccc2s1 [compound 554] | 53 |
| COC(=O)c1ccccc1S(=O)(=O)Nc1ccc2sc(C)nc2c1 [compound 705] | 28 |
| Cc1nc2cc(NS(=O)(=O)c3ccc(Br)cc3)ccc2s1 [compound 519] | 48 |
| COc1c(C)c(C)c(S(=O)(=O)Nc2ccc3sc(C)nc3c2)c(C)c1C [compound 708] | 21 |
| Cc1nc2cc(NS(=O)(=O)c3ccccc3C#N)ccc2s1 [compound 583] | 28 |
| Cc1nc2cc(NS(=O)(=O)c3ccc(Oc4ccccc4)cc3)ccc2s1 [compound 585] | 58 |
| CCN(c1ccc2sc(C)nc2c1)S(=O)(=O)c1cccc(Cl)c1C [compound 470] | 54 |
| COc1ccc(Cl)cc1S(=O)(=O)Nc1ccc2sc(C)nc2c1 [compound 582] | 34 |
